This note sets out measurements from ChEMBL document CHEMBL1141867, “A small library of trisubstituted pyrimidines as antimalarial and antitubercular agents” (2005).

Experiment [1] concerns Plasmodium falciparum. Put plainly: Antimalarial activity against Plasmodium falciparum NF54. The note with it: NF-54. Type of experiment: functional.
Experiment [2] has as its system Mycobacterium tuberculosis. Kind of experiment: Antitubercular activity against Mycobacterium tuberculosis H37Ra. Type of experiment: functional.

Each structure is given as a SMILES string. ≈ marks a conversion by molar mass, not a printed value.

In general, MIC refers to the least concentration at which growth counts as inhibited. Read a high MIC as a need for much substance. Turning to `Oc1ccc(-c2cc(-c3ccccc3)nc(NCCCN3CCOCC3)n2)cc1`, the results for the minimum inhibitory concentration (MIC) in experiment [1] and in experiment [2] were 2 µg/mL (≈ 5.12 µM) and 12.5 µg/mL (≈ 32 µM), respectively.

As for `Oc1ccc(-c2cc(-c3ccccc3)nc(N3CCOCC3)n2)cc1`, the MIC in experiment [1] stood at 2 µg/mL (≈ 6 µM).

Turning to `COc1ccc(OC)c(-c2cc(-c3ccc(O)cc3)nc(NCCCn3ccnc3)n2)c1`, the minimum inhibitory concentration (MIC) stood at 0.25 µg/mL (≈ 0.579 µM) in experiment [1] and 12.5 µg/mL (≈ 29 µM) in experiment [2].

On to `CCN(CC)CCCC(C)Nc1nc(-c2ccc(O)cc2)cc(-c2ccc(OC)cc2)n1` (configuration not stated), for which the MIC in experiment [1] is 10 µg/mL (≈ 23 µM); in experiment [2], 12.5 µg/mL (≈ 28.8 µM).

Turning to `COc1ccc(OC)c(-c2cc(-c3ccc(O)cc3)nc(NCCCN3CCOCC3)n2)c1`, the figures for the MIC in experiment [1] and in experiment [2] were 0.5 µg/mL (≈ 1.11 µM) and 25 µg/mL (≈ 55.5 µM), respectively.

On to `COc1ccc(-c2cc(-c3ccc(O)cc3)nc(N3CCOCC3)n2)cc1OC`, for which the minimal inhibitory concentration (MIC) in experiment [1] worked out at 0.5 µg/mL (≈ 1.27 µM).

`CCN(CC)CCCC(C)Nc1nc(-c2ccc(C)cc2)cc(-c2ccc(O)cc2)n1` (configuration not stated) showed an MIC in experiment [1] of 50 µg/mL (≈ 119 µM).

With `COc1ccc(-c2cc(-c3ccc(O)cc3)nc(NCCCn3ccnc3)n2)cc1OC`, the MIC in experiment [1] turned out to be 0.25 µg/mL (≈ 0.579 µM); in experiment [2], 12.5 µg/mL (≈ 29 µM).

For the compound `COc1ccc(OC)c(-c2cc(-c3ccc(O)cc3)nc(N3CCOCC3)n2)c1`, the MIC in experiment [1] is 0.5 µg/mL (≈ 1.27 µM).

As to `Oc1ccc(-c2cc(-c3ccccc3)nc(NCCCn3ccnc3)n2)cc1`, the MIC was 0.5 µg/mL (≈ 1.35 µM) in experiment [1] and 25 µg/mL (≈ 67.3 µM) in experiment [2].

On to `Cc1ccc(-c2cc(-c3ccc(O)cc3)nc(N3CCOCC3)n2)cc1`, for which, in experiment [1], the MIC stood at 2 µg/mL (≈ 5.76 µM).

Regarding `COc1ccc(-c2cc(-c3ccc(O)cc3)nc(NCCCN3CCOCC3)n2)cc1OC`, the minimum inhibitory concentration (MIC) amounted to 0.5 µg/mL (≈ 1.11 µM) in experiment [1] and 25 µg/mL (≈ 55.5 µM) in experiment [2].

Turning to `CCN(CC)CCCC(C)Nc1nc(-c2ccc(O)cc2)cc(-c2cc(OC)ccc2OC)n1` (configuration not stated), the minimal inhibitory concentration (MIC) is 10 µg/mL (≈ 21.5 µM) in experiment [1] and 12.5 µg/mL (≈ 26.9 µM) in experiment [2].

Consider `Cc1ccc(-c2cc(-c3ccc(O)cc3)nc(NCCCN3CCOCC3)n2)cc1`, for which the MIC in experiment [1] was 2 µg/mL (≈ 4.94 µM).

In turn, `Cc1ccc(-c2cc(-c3ccc(O)cc3)nc(NCCCn3ccnc3)n2)cc1` came in with an MIC in experiment [1] of 2 µg/mL (≈ 5.19 µM).

In turn, `COc1ccc(-c2cc(-c3ccc(O)cc3)nc(N3CCOCC3)n2)cc1` yielded an MIC in experiment [1] of 1 µg/mL (≈ 2.75 µM).

Consider `COc1ccc(-c2cc(-c3ccc(O)cc3)nc(NCCCn3ccnc3)n2)cc1`, for which the minimal inhibitory concentration (MIC) in experiment [1] was determined as 1 µg/mL (≈ 2.49 µM); in experiment [2] it was 12.5 µg/mL (≈ 31.1 µM).

With `COc1ccc(-c2cc(-c3ccc(O)cc3)nc(NCCCN3CCOCC3)n2)cc1`, the MIC in experiment [1] is 1 µg/mL (≈ 2.38 µM); in experiment [2] it was 12.5 µg/mL (≈ 29.7 µM).

For `CCN(CC)CCCC(C)Nc1nc(-c2ccccc2)cc(-c2ccc(O)cc2)n1` (configuration not stated), the MIC in experiment [1] is 10 µg/mL (≈ 24.7 µM); in experiment [2] it was 25 µg/mL (≈ 61.8 µM).

As to `CCN(CC)CCCC(C)Nc1nc(-c2ccc(O)cc2)cc(-c2ccc(OC)c(OC)c2)n1` (configuration not stated), the MIC in experiment [1] was 2 µg/mL (≈ 4.3 µM); in experiment [2] it was 12.5 µg/mL (≈ 26.9 µM).
